Data: US8026410B2 (priority 2003, dated 2011)

Experiments:
[1] = test system: Tobacco seeds germinated on MS medium containing DAS; parameters: species or system Nicotiana tabacum; details: in vivo
[2] = test system: Tobacco seeds germinated on MS medium containing DON; parameters: species or system Nicotiana tabacum; details: in vivo
[3] = test system: wheat; details: in vivo; cited from earlier work
[4] = test system: Phytophthora infestans, Colletotrichum coccodes, fusarium solani, fusarium sulphureum, Phoma foreata and Rhizoctonia solani; details: cited from earlier work
[5] = test system: transgenic tobacco plants; details: in vivo; cited from earlier work

4,15-diacetoxyscirpenol [DAS]
lowest concentration that would give the best inhibition of wild type tobacco seed growth [1]: 1 µM

CC1=C[C@H]2O[C@@H]3[C@H](O)C[C@](C)([C@@]2(CO)[C@H](O)C1=O)[C@]31CO1 [DON, Deoxynivalenol]
lowest concentration that would give the best inhibition of wild type tobacco seed growth [2]: 10 µM
inhibition toward wheat [3]: far more inhibitory than DAS

B1: PAP: 29-kDa ribosome inactivating protein (protein)
chain: VNTIIYNVGSTTISKYATFLNDLRNEAKDPSLKCYGIPMLPNTNTNPKYVLVELQGSNKKTITLMLRRNNLYVMGYSDPFETNKCRYHIFNDISGTERQDVETTLCPNANSRVSKNINFDSRYPTLESKAGVKSRSQVQLGIQILDSNIGKISGVMSFTEKTEAEFLLVAIQMVSEAARFKYIENQVKTNFNRAFNPNPKVLNLQETWGKISTAIHDAKNGVLPKPLELVDASGAKWIVLRVDEIKPDVALLNYVGGSCQTTY
effect on growth of fungi in vitro [4]: no effect on the growth
phenotype of PAP-expressing tobacco plants [5]: stunted, mottled phenotype
